{
  "source": "ChEMBL document CHEMBL4184156",
  "about": "“Repurposing Hsp90 inhibitors as antibiotics targeting histidine kinases” (Bioorg Med Chem Lett, 2017)",
  "key": {"[1]": {"assay": "Hemolytic activity against sheep RBC at 0.5 mM after 30 mins relative to control", "format": "ADME, cell-based, Ovis aries, Erythrocyte", "settings": "sheep red blood cells (erythrocytes), read-out: Activity"}, "[2]": {"test_system": "Caulobacter vibrioides", "assay": "Antibacterial activity against Caulobacter crescentus NA1000 after 24 hrs by broth dilution method", "format": "functional", "settings": "NA1000, 24 h"}, "[3]": {"test_system": "Bacillus subtilis", "assay": "Antibacterial activity against Bacillus subtilis YB886 after 24 hrs by broth dilution method", "format": "functional", "settings": "YB886, 24 h"}, "[4]": {"test_system": "Escherichia coli", "assay": "Antibacterial activity against Escherichia coli DC2 after 24 hrs by broth dilution method", "format": "functional", "settings": "DC2, 24 h"}, "[5]": {"target": "T1, Virulence sensor histidine kinase PhoQ (Salmonella typhimurium (strain LT2 / SGSC1412 / ATCC 700720)) (UniProt P0DM80)", "T1 sequence (whole entry)": "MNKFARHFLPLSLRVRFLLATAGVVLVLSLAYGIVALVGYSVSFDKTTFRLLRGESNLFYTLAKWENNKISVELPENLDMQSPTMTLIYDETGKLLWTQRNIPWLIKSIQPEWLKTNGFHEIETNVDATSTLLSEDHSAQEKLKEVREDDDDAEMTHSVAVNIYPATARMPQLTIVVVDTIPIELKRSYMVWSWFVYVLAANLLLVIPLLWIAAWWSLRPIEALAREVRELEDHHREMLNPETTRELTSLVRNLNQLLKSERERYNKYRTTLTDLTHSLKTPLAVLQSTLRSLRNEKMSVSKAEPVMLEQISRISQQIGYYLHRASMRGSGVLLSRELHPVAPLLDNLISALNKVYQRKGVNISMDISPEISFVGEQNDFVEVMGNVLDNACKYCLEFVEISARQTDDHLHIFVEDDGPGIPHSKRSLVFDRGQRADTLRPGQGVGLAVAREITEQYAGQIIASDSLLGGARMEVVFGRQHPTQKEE", "assay": "(§1) Inhibition of recombinant Salmonella typhimurium N-terminal His6-SUMO-tagged DHp-catalytic domain PhoQ (257 to 487 residues) autophosphorylation expressed in Escherichia coli BL21(DE3) at 500 uM preincubated for 10 mins followed by [gamma-32P]-ATP addition after 30 mins by phosphotransferase dot blot assay relative to control", "set-up": "scale not given: the % may be the effect or the level left", "settings": "Salmonella enterica subsp. enterica serovar Typhimurium"}, "[6]": {"target": "T2, Cell cycle histidine kinase CckA (Caulobacter vibrioides) (UniProt Q9X688)", "T2 sequence (whole entry)": "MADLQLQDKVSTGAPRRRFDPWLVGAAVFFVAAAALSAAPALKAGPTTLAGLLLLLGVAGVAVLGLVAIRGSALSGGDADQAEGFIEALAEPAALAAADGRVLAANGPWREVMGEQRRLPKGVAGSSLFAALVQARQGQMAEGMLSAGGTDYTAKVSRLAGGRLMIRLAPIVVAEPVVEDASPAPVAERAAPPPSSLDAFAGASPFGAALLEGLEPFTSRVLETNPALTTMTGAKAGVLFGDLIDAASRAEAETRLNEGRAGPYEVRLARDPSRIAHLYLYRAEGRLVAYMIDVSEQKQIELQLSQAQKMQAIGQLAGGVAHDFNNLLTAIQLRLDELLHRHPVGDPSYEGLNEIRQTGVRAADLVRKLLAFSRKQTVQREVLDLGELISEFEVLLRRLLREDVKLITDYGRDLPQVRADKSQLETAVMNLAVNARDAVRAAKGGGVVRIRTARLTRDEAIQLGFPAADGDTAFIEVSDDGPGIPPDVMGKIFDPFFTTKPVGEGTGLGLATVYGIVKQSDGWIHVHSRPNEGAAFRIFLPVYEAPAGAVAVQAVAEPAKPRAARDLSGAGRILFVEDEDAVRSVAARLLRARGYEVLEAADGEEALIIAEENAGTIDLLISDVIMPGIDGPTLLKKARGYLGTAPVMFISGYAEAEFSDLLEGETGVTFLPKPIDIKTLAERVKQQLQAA", "assay": "Binding affinity to recombinant Caulobacter vibrioides cell cycle histidine kinase CckA delta 3 mutant DHp domain (190 to 562 residues) expressed in Escherichia coli assessed as change in metlting temperature at 30 uM after 2 mins by SYPRO orange dye based DSF assay"}, "[7]": {"target": "T3, Histidine protein kinase DivJ (Caulobacter vibrioides (strain ATCC 19089 / CB15) (Caulobactercrescentus)) (UniProt Q03228)", "T3 sequence (whole entry)": "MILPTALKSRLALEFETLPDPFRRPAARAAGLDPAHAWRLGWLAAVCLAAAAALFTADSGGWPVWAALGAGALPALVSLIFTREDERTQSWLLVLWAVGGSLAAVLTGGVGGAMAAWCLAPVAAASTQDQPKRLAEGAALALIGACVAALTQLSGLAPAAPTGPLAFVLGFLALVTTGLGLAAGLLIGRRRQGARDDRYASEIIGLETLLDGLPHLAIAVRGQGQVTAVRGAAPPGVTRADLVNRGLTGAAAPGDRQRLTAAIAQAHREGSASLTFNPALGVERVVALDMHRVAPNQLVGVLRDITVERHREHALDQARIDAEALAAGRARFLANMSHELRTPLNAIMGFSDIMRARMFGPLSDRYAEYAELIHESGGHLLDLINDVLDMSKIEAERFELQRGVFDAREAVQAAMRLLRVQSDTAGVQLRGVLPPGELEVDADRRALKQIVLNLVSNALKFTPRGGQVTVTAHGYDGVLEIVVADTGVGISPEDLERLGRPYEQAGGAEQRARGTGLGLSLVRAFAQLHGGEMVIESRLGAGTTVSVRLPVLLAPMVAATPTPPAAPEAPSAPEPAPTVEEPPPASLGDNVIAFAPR", "assay": "as §1, with “Caulobacter vibrioides” for “Salmonella typhimurium”, “His6-tagged” for “His6-SUMO-tagged”, “DivJ (188” for “PhoQ (257”, “585” for “487”, “15” for “30”", "set-up": "scale not given: the % may be the effect or the level left"}, "[8]": {"target": "Cell cycle histidine kinase CckA (Caulobacter vibrioides, UniProt Q9X688)", "assay": "Inhibition of recombinant Caulobacter vibrioides cell cycle histidine kinase CckA deltaTM mutant DHp domain (70 to 691 residues) expressed in Escherichia coli in presence of varying levels of ATP measured every 60 secs for 2 hrs by PK/LDH enzyme coupled assay"}, "[9]": {"assay": "Inhibition of recombinant full length yeast N-terminal His-tagged Hsp90 expressed in Escherichia coli BL21 incubated overnight in presence of ATP by malachite green dye based assay", "set-up": "species or system Saccharomyces cerevisiae"}, "[10]": {"target": "T4, Virulence sensor histidine kinase PhoQ (Salmonella typhimurium (strain LT2 / SGSC1412 / ATCC 700720), UniProt P0DM80)", "T4 sequence (P0DM80 whole entry)": "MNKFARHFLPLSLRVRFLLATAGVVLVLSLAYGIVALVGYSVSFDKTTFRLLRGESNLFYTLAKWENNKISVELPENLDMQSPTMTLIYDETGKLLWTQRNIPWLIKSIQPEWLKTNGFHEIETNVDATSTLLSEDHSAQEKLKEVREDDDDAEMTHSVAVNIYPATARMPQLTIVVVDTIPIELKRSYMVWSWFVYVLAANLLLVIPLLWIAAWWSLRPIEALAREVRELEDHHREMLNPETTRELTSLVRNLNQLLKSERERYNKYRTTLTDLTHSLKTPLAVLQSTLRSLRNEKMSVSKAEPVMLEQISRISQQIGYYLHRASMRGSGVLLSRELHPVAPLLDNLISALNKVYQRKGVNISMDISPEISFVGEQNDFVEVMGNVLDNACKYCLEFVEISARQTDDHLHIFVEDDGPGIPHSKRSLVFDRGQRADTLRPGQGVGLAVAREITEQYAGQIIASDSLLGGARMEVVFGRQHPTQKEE", "assay": "Displacement of TNP-ATP from recombinant Salmonella typhimurium GST-tagged DHp-catalytic domain PhoQ (332 to 487 residues) expressed in Escherichia coli XA90 aafter 10 mins by fluorescence assay", "set-up": "species or system Salmonella enterica subsp. enterica serovar Typhimurium"}, "[11]": {"compound": "COc1ccc(-c2c(C)n[nH]c2-c2cc(Cl)c(O)cc2O)cc1", "assay": "Competitive inhibition of Caulobacter vibrioides full length wild type Cell cycle histidine kinase CckA deltaTM expressed in Escherichia coli BL21-AI assessed as enzyme Km in presence of varying levels of ATP measured every 60 secs for 2 hrs by Lineweaver-Burk plot analysis"}},
  "data": [
    {"molecule": "C[C@@H]1C[C@H]2O[C@@H]2/C=C\\C=C\\C(=O)Cc2c(Cl)c(O)cc(O)c2C(=O)O1", "note": "[RADICICOL]", "values": [
      {"measurement": "hemolysis at 0.5 h, 500 µM", "setting": "[1]", "value": 0, "unit": "%"},
      {"measurement": "MIC", "setting": "[2]", "value": "> 300", "unit": "µM"},
      {"measurement": "MIC", "setting": "[3]", "value": "> 300", "unit": "µM"},
      {"measurement": "MIC", "setting": "[4]", "value": "> 300", "unit": "µM"},
      {"measurement": "Activity", "setting": "[5]", "value": 86, "unit": "%"},
      {"measurement": "ΔTm", "setting": "[6]", "value": 0.9, "unit": "°C"},
      {"measurement": "Activity", "setting": "[7]", "value": 123, "unit": "%"},
      {"measurement": "IC50", "setting": "[8]", "value": 184, "unit": "µM"},
      {"measurement": "IC50", "setting": "[9]", "value": 0.26, "unit": "µM"}
    ]},
    {"molecule": "CC(C)=CCc1c(O)cc2occ(Cl)c(=O)c2c1O", "values": [
      {"measurement": "Kd", "setting": "[10]", "value": 391, "unit": "µM"}
    ]},
    {"molecule": "Cell cycle histidine kinase CckA (Caulobacter vibrioides), Q9X688 (protein) MADLQLQDKVSTGAPRRRFDPWLVGAAVFFVAAAALSAAPALKAGPTTLAGLLLLLGVAGVAVLGLVAIRGSALSGGDADQAEGFIEALAEPAALAAADGRVLAANGPWREVMGEQRRLPKGVAGSSLFAALVQARQGQMAEGMLSAGGTDYTAKVSRLAGGRLMIRLAPIVVAEPVVEDASPAPVAERAAPPPSSLDAFAGASPFGAALLEGLEPFTSRVLETNPALTTMTGAKAGVLFGDLIDAASRAEAETRLNEGRAGPYEVRLARDPSRIAHLYLYRAEGRLVAYMIDVSEQKQIELQLSQAQKMQAIGQLAGGVAHDFNNLLTAIQLRLDELLHRHPVGDPSYEGLNEIRQTGVRAADLVRKLLAFSRKQTVQREVLDLGELISEFEVLLRRLLREDVKLITDYGRDLPQVRADKSQLETAVMNLAVNARDAVRAAKGGGVVRIRTARLTRDEAIQLGFPAADGDTAFIEVSDDGPGIPPDVMGKIFDPFFTTKPVGEGTGLGLATVYGIVKQSDGWIHVHSRPNEGAAFRIFLPVYEAPAGAVAVQAVAEPAKPRAARDLSGAGRILFVEDEDAVRSVAARLLRARGYEVLEAADGEEALIIAEENAGTIDLLISDVIMPGIDGPTLLKKARGYLGTAPVMFISGYAEAEFSDLLEGETGVTFLPKPIDIKTLAERVKQQLQAA", "values": [
      {"measurement": "Km", "setting": "[11]", "value": 17.9, "unit": "µM"}
    ]}
  ]
}
